A short description of the series: Transdermal delivery and tolerability of Rivastigmine patches. Format: in vivo.

For `CCN(C)C(=O)Oc1cccc([C@H](C)N(C)C)c1` [Rivastigmine, (S)-{3-[α-(Dimethylamino)ethyl]phenyl}-N-ethyl-N-methylcarbamate], where the note is “dose of 36 mg free base in up to 80 cm^2 of patches”, the tolerability entry was “well tolerated”. Where the note is “patches containing 36 mg Rivastigmine, up to 80 cm^2”, this compound had an amount absorbed of 12 mg.

Source of the values: US20140336253A1, “COMPOSITION FOR TRANSDERMAL ADMINISTRATION OF RIVASTIGMINE” (priority 2011, published 2014).
